In US11351142B2, “Composition and method for treating neuronal ceroid lipofuscinosis” (Rush University Medical Center, priority 2012, dated 2022):

Tests used:
[1] = tested on: Cln2 mRNA; assay: Cln2 mRNA expression by semi-quantitative RT-PCR and real-time PCR in mouse primary astrocytes; type: cell-based
Description: Astroglia were isolated from mixed glial cultures as described (17,18) according to the procedure of Giulian and Baker (19). Briefly, on day 9, the mixed glial cultures were washed three times with Dulbecco's modified Eagle's medium/F-12 and subjected to shaking at 240 rpm for 2 h at 37° C. on a rotary shaker to remove microglia. After 2 days, the shaking was repeated for 24 h for the removal of oligodendroglia and to ensure the complete removal of all nonastroglial cells. The attached cells were seeded onto new plates for further studies. Total RNA was isolated from mouse primary astrocytes and human primary astrocytes using RNA-Easy Qiagen (Valencia, Calif.) kit following manufactures protocol. Semi-quantitative RT-PCR was carried out as described earlier (24) using oligo (dT) 12-18 as primer and moloney murine leukemia virus reverse transcriptase (MMLV-RT, Invitrogen) in a 20 μl reaction mixture. The resulting cDNA was appropriately amplified using Promega Master Mix (Madison, Wis.) and the following primers (Invitrogen) for murine genes: The mRNA quantification was performed using the ABI-Prism7700 sequence detection system (Applied Biosystems, Foster City, Calif.) using iTaq™ Fast Supermix With ROX (Bio-Rad, Hercules, Calif.) and the following 6-FAM/ZEN/IBFQ-labeled primers for murine genes: Cln2 and Gapdh (Integrated DNA Technologies Coralville, Iowa). The mRNA expression of the targeted genes was normalized to the level of Gapdh mRNA and data was processed by the ABI Sequence Detection System 1.6 software.

[2] = tested on: TPP1; assay: Western blot and densitometric analysis of TPP1 in mouse primary astrocytes; type: cell-based
Description: Astroglia were isolated from mixed glial cultures as described (17,18) according to the procedure of Giulian and Baker (19). Briefly, on day 9, the mixed glial cultures were washed three times with Dulbecco's modified Eagle's medium/F-12 and subjected to shaking at 240 rpm for 2 h at 37° C. on a rotary shaker to remove microglia. After 2 days, the shaking was repeated for 24 h for the removal of oligodendroglia and to ensure the complete removal of all nonastroglial cells. The attached cells were seeded onto new plates for further studies.
Western blotting was conducted as described earlier (27,28) with modifications. Briefly, cells were scraped in double-distilled H20 and sodium dodecyl sulfate (SDS), electrophoresed on NuPAGE® Novex® 4-12% Bis-Tris gels (Invitrogen) and proteins transferred onto a nitrocellulose membrane (Bio-Rad) using the Thermo-Pierce Fast Semi-Dry Blotter. The membrane was then washed for 15 min in TBS plus Tween 20 (TBST) and blocked for 1 hr in TBST containing BSA. Next, membranes were incubated overnight at 4° C. under shaking conditions with the following 1° antibodies; TPP1 (1:250, Santa Cruz), β-actin (1:800; Abcam, Cambridge, Mass. The next day, membranes were washed in TBST for 1 hr, incubated in 2° antibodies against 1° antibody hosts (all 1:10,000; Jackson ImmunoResearch) for 1 hr at room temperature, washed for one more hour and visualized under the Odyssey® Infrared Imaging System (Li-COR, Lincoln, Nebr.).
Protein blots were analyzed using ImageJ (NIH, Bethesda, Md.) and bands were normalized to their respective β-actin loading controls. Data are representative of the average fold change with respect to control for three independent experiments.

Which results are given for `CC1=C(/C=C/C(C)=C/C=C/C(C)=C/C(=O)O)C(C)(C)CCC1` [RA, all-trans retinoic acid]?
Cln2 level (quantitative real time PCR) ([1]; astrocytes with RXRα knockdown (RXRα siRNA), gemfibrozil (10 μM), RA (0.5 μM) alone and in combination): almost unresponsive; increase in Cln2 mRNA levels (quantitative real time PCR) ([1]; mouse primary astrocytes, 24 hrs, RA 0.5 μM, gemfibrozil 10 μM, combination 10 μM gemfibrozil and 0.5 μM RA): about 3.5 fold; induction of TPP1 (immunoblot) ([2]; PPARα−/− astrocytes, RA (0.5 μM) and combination of gemfibrozil (10 μM) and RA (0.5 μM)): neither RA alone nor the combination could induce TPP1; TPP1 levels (Western blot, densitometric analysis) ([2]; RXRα siRNA transfected astrocytes, gemfibrozil (10 μM), RA (0.5 μM) alone and in combination): almost no enhancement
